{"source": "patent US10724099B2", "about": "“Multiplex methods to assay mixed cell populations simultaneously” (The Broad Institute, Inc., priority 2012, dated 2020)", "key": {"LKB1": {"molecular_target": "T1, LKB1 (Homo sapiens, UniProt Q15831)", "T1 construct": "purchased DiscoveRx scanEDGE panel (KinomeScan)", "experiment": "DiscoveRx KinomeScan binding", "conditions": "Entrez STK11"}, "BMPR2": {"molecular_target": "T2, BMPR2 (Homo sapiens, UniProt Q13873)", "T2 construct": "purchased DiscoveRx (KINOMEscan scanEDGE panel)", "T2 sequence (Q13873 27-1038)": "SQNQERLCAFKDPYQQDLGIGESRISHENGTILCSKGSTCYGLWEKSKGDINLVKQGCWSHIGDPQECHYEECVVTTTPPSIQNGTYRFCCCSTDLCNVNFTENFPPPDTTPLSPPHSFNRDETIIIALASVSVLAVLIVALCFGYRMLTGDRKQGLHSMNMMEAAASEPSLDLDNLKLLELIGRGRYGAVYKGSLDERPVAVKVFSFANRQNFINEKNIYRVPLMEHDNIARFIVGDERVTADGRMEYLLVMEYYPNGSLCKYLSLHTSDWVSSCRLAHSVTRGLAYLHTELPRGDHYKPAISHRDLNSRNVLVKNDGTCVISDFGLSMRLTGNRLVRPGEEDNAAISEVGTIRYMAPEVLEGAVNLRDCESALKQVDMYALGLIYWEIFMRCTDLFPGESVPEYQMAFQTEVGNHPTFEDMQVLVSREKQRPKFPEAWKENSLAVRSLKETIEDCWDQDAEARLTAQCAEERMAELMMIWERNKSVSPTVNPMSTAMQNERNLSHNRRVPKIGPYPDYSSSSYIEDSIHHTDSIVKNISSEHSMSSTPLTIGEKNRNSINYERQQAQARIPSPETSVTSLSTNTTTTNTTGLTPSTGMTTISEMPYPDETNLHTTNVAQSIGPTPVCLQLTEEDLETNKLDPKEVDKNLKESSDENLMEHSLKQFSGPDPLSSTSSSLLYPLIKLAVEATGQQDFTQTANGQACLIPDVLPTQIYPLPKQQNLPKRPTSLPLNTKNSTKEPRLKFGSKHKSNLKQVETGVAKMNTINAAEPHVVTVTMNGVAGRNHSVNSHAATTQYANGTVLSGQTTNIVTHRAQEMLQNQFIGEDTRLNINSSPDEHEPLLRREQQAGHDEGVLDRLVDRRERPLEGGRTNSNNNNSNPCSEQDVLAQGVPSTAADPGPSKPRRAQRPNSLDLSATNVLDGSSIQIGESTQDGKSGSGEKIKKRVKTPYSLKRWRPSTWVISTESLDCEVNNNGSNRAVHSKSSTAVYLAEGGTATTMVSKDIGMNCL", "experiment": "DiscoveRx KinomeScan binding"}, "CSNK1D": {"molecular_target": "T3, CSNK1D (Homo sapiens, UniProt P48730)", "T3 construct": "purchased DiscoveRx scanEDGE panel", "experiment": "DiscoveRx KinomeScan binding"}, "PIM3": {"molecular_target": "T4, PIM3 (Homo sapiens, UniProt Q86V86)", "T4 construct": "purchased DiscoveRx scanEDGE panel", "experiment": "DiscoveRx KinomeScan binding"}, "PDGFRB": {"molecular_target": "T5, PDGFRB (Homo sapiens, UniProt P09619)", "T5 construct": "purchased DiscoveRx scanEDGE panel (KinomeScan)", "T5 sequence (P09619 33-1106)": "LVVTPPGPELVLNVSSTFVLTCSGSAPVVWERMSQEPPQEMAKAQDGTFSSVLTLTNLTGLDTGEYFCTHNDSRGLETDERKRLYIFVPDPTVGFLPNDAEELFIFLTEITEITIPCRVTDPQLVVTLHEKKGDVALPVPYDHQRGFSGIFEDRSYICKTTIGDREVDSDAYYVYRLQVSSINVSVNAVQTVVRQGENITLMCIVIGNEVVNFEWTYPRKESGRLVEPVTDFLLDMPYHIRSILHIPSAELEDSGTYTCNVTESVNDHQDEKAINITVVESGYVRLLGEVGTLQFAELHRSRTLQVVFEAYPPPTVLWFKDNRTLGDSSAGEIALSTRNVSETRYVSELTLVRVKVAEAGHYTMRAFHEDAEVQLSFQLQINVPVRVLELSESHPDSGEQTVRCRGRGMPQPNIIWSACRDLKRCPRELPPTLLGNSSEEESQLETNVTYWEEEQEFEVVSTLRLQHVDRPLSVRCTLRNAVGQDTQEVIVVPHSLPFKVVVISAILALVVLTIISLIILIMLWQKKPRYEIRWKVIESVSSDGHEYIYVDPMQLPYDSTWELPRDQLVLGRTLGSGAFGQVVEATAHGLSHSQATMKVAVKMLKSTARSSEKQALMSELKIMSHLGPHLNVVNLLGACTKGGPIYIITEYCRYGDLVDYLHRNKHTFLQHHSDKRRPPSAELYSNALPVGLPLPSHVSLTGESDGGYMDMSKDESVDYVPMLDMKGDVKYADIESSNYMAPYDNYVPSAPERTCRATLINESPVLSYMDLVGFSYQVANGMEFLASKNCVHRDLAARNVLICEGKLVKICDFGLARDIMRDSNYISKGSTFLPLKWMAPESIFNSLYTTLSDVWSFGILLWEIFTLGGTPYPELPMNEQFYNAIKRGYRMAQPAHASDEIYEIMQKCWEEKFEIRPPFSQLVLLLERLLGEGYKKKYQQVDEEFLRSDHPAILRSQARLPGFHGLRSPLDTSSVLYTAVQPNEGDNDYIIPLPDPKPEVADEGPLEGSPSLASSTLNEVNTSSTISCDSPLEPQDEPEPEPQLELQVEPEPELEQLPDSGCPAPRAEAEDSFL", "experiment": "DiscoveRx KinomeScan binding"}, "MKNK2": {"molecular_target": "T6, MKNK2 (Homo sapiens, UniProt Q9HBH9)", "T6 construct": "purchased DiscoveRx scanEDGE panel (KinomeScan)", "experiment": "DiscoveRx KinomeScan binding"}, "CDK11": {"molecular_target": "T7, CDK11 (Homo sapiens, UniProt Q9BWU1)", "T7 construct": "purchased DiscoveRx (KINOMEscan scanEDGE panel)", "experiment": "DiscoveRx KinomeScan binding", "conditions": "Entrez CDK19"}, "YANK3": {"molecular_target": "T8, YANK3 (Homo sapiens, UniProt Q86UX6)", "T8 construct": "purchased DiscoveRx (KinomeScan scanEDGE panel service)", "experiment": "DiscoveRx KinomeScan binding", "conditions": "Entrez STK32C"}, "CDK3": {"molecular_target": "T9, CDK3 (Homo sapiens, UniProt Q00526)", "T9 construct": "purchased DiscoveRx (KINOMEscan scanEDGE panel)", "experiment": "DiscoveRx KinomeScan binding"}, "ACVR1B": {"molecular_target": "T10, ACVR1B (Homo sapiens, UniProt P36896)", "T10 construct": "purchased DiscoveRx (KINOMEscan scanEDGE panel)", "T10 sequence (P36896 24-505)": "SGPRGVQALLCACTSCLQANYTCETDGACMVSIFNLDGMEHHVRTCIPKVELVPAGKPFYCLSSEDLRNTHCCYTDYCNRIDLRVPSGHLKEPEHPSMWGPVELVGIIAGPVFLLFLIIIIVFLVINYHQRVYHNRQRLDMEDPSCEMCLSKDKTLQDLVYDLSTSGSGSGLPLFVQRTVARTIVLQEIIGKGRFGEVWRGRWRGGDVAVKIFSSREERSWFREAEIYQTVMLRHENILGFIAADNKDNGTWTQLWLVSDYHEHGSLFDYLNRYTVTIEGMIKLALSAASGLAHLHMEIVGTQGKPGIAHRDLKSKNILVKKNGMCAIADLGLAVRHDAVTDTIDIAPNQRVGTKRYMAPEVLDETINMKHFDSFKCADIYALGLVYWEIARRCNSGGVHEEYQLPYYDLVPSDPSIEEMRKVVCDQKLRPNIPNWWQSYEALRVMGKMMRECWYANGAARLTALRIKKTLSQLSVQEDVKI", "experiment": "DiscoveRx KinomeScan binding"}, "RIOK2": {"molecular_target": "T11, RIOK2 (Homo sapiens, UniProt Q9BVS4)", "T11 construct": "purchased DiscoveRx scanEDGE panel", "experiment": "DiscoveRx KinomeScan binding"}, "AKT1": {"molecular_target": "T12, AKT1 (Homo sapiens, UniProt P31749)", "T12 construct": "purchased DiscoveRx (KINOMEscan scanEDGE panel)", "experiment": "DiscoveRx KinomeScan binding"}, "BTK": {"molecular_target": "T13, BTK (Homo sapiens, UniProt Q06187)", "T13 construct": "purchased DiscoveRx (KINOMEscan scanEDGE panel)", "experiment": "DiscoveRx KinomeScan binding"}, "PLK3": {"molecular_target": "T14, PLK3 (Homo sapiens, UniProt Q9H4B4)", "T14 construct": "purchased DiscoveRx scanEDGE panel", "experiment": "DiscoveRx KinomeScan binding"}, "KIT": {"molecular_target": "T15, KIT (Homo sapiens, UniProt P10721)", "T15 construct": "purchased DiscoveRx scanEDGE panel (KinomeScan)", "experiment": "DiscoveRx KinomeScan binding"}, "PIK3CG": {"molecular_target": "T16, PIK3CG (Homo sapiens, UniProt P48736)", "T16 construct": "purchased DiscoveRx scanEDGE panel", "experiment": "DiscoveRx KinomeScan binding"}, "FAK": {"molecular_target": "T17, FAK (Homo sapiens, UniProt Q05397)", "T17 construct": "purchased DiscoveRx scanEDGE panel", "experiment": "DiscoveRx KinomeScan binding", "conditions": "Entrez PTK2"}, "MAPKAPK2": {"molecular_target": "T18, MAPKAPK2 (Homo sapiens, UniProt P49137)", "T18 construct": "purchased DiscoveRx scanEDGE panel (KinomeScan)", "experiment": "DiscoveRx KinomeScan binding"}, "PAK2": {"molecular_target": "T19, PAK2 (Homo sapiens, UniProt Q13177)", "T19 construct": "purchased DiscoveRx scanEDGE panel (KinomeScan)", "experiment": "DiscoveRx KinomeScan binding"}, "p38---beta": {"molecular_target": "T20, p38---beta (Homo sapiens, UniProt Q15759)", "T20 construct": "purchased DiscoveRx scanEDGE panel (KinomeScan)", "experiment": "DiscoveRx KinomeScan binding", "conditions": "Entrez MAPK11"}, "DCAMKL1": {"molecular_target": "T21, DCAMKL1 (Homo sapiens, UniProt O15075)", "T21 construct": "purchased DiscoveRx scanEDGE panel", "experiment": "DiscoveRx KinomeScan binding", "conditions": "Entrez DCLK1"}, "FGFR3": {"molecular_target": "T22, FGFR3 (Homo sapiens, UniProt P22607)", "T22 construct": "purchased DiscoveRx scanEDGE panel", "T22 sequence (P22607 23-806)": "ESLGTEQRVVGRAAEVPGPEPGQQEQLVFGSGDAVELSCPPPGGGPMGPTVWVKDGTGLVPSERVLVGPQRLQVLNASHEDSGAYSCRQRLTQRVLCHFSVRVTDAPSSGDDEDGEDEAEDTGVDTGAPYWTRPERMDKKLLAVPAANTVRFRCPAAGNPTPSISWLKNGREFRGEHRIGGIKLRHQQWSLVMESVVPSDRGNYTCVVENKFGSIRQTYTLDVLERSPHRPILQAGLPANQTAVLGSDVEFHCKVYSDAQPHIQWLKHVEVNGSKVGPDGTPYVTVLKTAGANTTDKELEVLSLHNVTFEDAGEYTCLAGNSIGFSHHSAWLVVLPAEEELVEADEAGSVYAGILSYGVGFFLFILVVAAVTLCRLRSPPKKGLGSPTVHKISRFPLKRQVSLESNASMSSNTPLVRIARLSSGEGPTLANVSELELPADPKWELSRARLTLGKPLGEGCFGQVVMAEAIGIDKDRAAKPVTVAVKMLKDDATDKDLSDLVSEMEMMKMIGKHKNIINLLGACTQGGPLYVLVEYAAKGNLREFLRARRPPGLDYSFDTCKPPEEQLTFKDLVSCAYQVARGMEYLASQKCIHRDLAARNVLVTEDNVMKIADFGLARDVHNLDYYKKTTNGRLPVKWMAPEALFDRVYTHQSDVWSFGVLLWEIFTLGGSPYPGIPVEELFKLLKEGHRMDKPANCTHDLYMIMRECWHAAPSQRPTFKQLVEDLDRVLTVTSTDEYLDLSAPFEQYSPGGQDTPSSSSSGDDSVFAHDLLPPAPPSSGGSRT", "experiment": "DiscoveRx KinomeScan binding"}, "PKAC---alpha": {"molecular_target": "T23, PKAC---alpha (Homo sapiens, UniProt P17612)", "T23 construct": "purchased DiscoveRx scanEDGE panel", "experiment": "DiscoveRx KinomeScan binding", "conditions": "Entrez PRKACA"}, "PAK1": {"molecular_target": "T24, PAK1 (Homo sapiens, UniProt Q13153)", "T24 construct": "purchased DiscoveRx scanEDGE panel (KinomeScan)", "experiment": "DiscoveRx KinomeScan binding"}, "SRPK3": {"molecular_target": "T25, SRPK3 (Homo sapiens, UniProt Q9UPE1)", "T25 construct": "purchased DiscoveRx scanEDGE panel", "experiment": "DiscoveRx KinomeScan binding"}, "TIE2": {"molecular_target": "T26, TIE2 (Homo sapiens, UniProt Q02763)", "T26 construct": "purchased DiscoveRx scanEDGE panel", "experiment": "DiscoveRx KinomeScan binding", "conditions": "Entrez TEK"}, "AURKA": {"molecular_target": "T27, AURKA (Homo sapiens, UniProt O14965)", "T27 construct": "purchased DiscoveRx (KINOMEscan scanEDGE panel)", "experiment": "DiscoveRx KinomeScan binding"}, "KIT(V559D,T670I)": {"molecular_target": "T28, KIT(V559D,T670I) (Homo sapiens, UniProt P10721, T670I/V559D)", "T28 construct": "purchased DiscoveRx scanEDGE panel (KinomeScan)", "experiment": "DiscoveRx KinomeScan binding"}, "VEGFR2": {"molecular_target": "T29, VEGFR2 (Homo sapiens, UniProt P35968)", "T29 construct": "purchased DiscoveRx scanEDGE panel", "experiment": "DiscoveRx KinomeScan binding", "conditions": "Entrez KDR"}, "[1]": {"molecular_target": "T30, RSK2(Kin.Dom.1---N---terminal) (Homo sapiens, UniProt P51812)", "T30 construct": "RSK2(Kin.Dom.1---N---terminal); purchased DiscoveRx scanEDGE panel", "T30 sequence (P51812 68-327 limits assumed)": "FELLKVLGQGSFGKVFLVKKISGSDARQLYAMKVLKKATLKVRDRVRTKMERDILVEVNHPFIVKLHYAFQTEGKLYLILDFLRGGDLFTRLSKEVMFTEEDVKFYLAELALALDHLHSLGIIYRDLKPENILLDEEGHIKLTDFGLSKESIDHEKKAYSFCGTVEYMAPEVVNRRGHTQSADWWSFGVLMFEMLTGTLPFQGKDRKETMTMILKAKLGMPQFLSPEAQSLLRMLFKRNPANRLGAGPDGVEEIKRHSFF", "experiment": "DiscoveRx KinomeScan binding", "conditions": "Entrez RPS6KA3"}, "308 kinases": {"system": "308 kinases", "experiment": "Kinase activity profiling, Millipore KinaseProfiler", "type": "biochemical"}, "AURKC": {"molecular_target": "T31, AURKC (Homo sapiens, UniProt Q9UQB9)", "T31 construct": "purchased DiscoveRx (KINOMEscan; added to the scanEDGE panel)", "experiment": "DiscoveRx KinomeScan binding"}, "[2]": {"molecular_target": "T32, JAK3(JH1domain---catalytic) (Homo sapiens, UniProt P52333)", "T32 construct": "JAK3(JH1domain---catalytic); purchased DiscoveRx scanEDGE panel", "T32 sequence (P52333 822-1111 limits assumed)": "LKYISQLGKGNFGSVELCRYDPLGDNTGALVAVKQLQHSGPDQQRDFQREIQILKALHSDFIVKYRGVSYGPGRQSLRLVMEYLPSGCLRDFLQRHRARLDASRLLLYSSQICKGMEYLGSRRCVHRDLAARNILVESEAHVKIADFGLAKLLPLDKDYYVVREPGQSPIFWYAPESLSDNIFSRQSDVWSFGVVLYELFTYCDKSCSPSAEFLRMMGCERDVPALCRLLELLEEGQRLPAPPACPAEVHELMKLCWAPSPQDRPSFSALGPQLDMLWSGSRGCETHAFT", "experiment": "DiscoveRx KinomeScan binding"}, "SNARK": {"molecular_target": "T33, SNARK (Homo sapiens, UniProt Q9H093)", "T33 construct": "purchased DiscoveRx scanEDGE panel", "experiment": "DiscoveRx KinomeScan binding", "conditions": "Entrez NUAK2"}, "PRKCE": {"molecular_target": "T34, PRKCE (Homo sapiens, UniProt Q02156)", "T34 construct": "purchased DiscoveRx scanEDGE panel", "experiment": "DiscoveRx KinomeScan binding"}, "JNK1": {"molecular_target": "T35, JNK1 (Homo sapiens, UniProt P45983)", "T35 construct": "purchased DiscoveRx scanEDGE panel", "experiment": "DiscoveRx KinomeScan binding", "conditions": "Entrez MAPK8"}, "FLT3": {"molecular_target": "T36, FLT3 (Homo sapiens, UniProt P36888)", "T36 construct": "purchased DiscoveRx scanEDGE panel", "T36 sequence (P36888 27-993)": "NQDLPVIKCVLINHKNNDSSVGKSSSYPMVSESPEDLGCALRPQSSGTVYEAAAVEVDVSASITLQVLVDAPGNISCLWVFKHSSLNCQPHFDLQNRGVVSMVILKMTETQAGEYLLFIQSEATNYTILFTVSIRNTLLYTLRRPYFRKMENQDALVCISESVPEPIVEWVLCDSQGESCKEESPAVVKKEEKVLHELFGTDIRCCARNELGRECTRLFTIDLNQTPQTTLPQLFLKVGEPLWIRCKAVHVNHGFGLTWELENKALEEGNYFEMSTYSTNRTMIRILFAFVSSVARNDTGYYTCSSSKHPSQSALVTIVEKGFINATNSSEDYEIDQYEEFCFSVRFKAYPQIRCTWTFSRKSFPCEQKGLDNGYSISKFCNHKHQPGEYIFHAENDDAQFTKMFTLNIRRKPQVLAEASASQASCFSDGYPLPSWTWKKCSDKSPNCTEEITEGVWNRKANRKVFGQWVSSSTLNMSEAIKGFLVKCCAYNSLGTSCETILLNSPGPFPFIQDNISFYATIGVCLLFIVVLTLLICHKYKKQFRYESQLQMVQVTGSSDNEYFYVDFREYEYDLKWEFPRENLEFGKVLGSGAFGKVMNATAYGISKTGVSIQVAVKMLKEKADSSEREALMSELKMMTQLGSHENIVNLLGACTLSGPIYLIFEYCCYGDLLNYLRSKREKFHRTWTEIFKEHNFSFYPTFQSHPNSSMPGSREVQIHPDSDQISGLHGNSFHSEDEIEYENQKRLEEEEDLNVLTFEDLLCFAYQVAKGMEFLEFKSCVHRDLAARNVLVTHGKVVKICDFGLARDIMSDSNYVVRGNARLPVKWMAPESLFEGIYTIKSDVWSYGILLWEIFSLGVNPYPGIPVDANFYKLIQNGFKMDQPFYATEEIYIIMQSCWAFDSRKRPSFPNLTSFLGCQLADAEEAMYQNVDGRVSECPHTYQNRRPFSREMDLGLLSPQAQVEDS", "experiment": "DiscoveRx KinomeScan binding"}}, "data": [{"smiles": "COc1ccc(NC(=O)Nc2ccc3c(c2)C(=O)N([C@@H](C)CO)C[C@H](C)[C@H](CN(C)Cc2ccc4c(c2)OCO4)O3)cc1", "note": "[BRD-7880]", "values": [{"measurement": "Percent Control", "setting": "LKB1", "result": 39, "unit": "%"}, {"measurement": "Percent Control", "setting": "BMPR2", "result": 100, "unit": "%"}, {"measurement": "Percent Control", "setting": "CSNK1D", "result": 100, "unit": "%"}, {"measurement": "Percent Control", "setting": "PIM3", "result": 72, "unit": "%"}, {"measurement": "Percent Control", "setting": "PDGFRB", "result": 100, "unit": "%"}, {"measurement": "Percent Control", "setting": "MKNK2", "result": 77, "unit": "%"}, {"measurement": "Percent Control", "setting": "CDK11", "result": 43, "unit": "%"}, {"measurement": "Percent Control", "setting": "YANK3", "result": 91, "unit": "%"}, {"measurement": "Percent Control", "setting": "CDK3", "result": 76, "unit": "%"}, {"measurement": "Percent Control", "setting": "ACVR1B", "result": 84, "unit": "%"}, {"measurement": "Percent Control", "setting": "RIOK2", "result": 38, "unit": "%"}, {"measurement": "Percent Control", "setting": "AKT1", "result": 87, "unit": "%"}, {"measurement": "Percent Control", "setting": "BTK", "result": 94, "unit": "%"}, {"measurement": "Percent Control", "setting": "PLK3", "result": 48, "unit": "%"}, {"measurement": "Percent Control", "setting": "KIT", "result": 77, "unit": "%"}, {"measurement": "Percent Control", "setting": "PIK3CG", "result": 100, "unit": "%"}, {"measurement": "Percent Control", "setting": "FAK", "result": 100, "unit": "%"}, {"measurement": "Percent Control", "setting": "MAPKAPK2", "result": 80, "unit": "%"}, {"measurement": "Percent Control", "setting": "PAK2", "result": 69, "unit": "%"}, {"measurement": "Percent Control", "setting": "p38---beta", "result": 87, "unit": "%"}, {"measurement": "Percent Control", "setting": "DCAMKL1", "result": 37, "unit": "%"}, {"measurement": "Percent Control", "setting": "FGFR3", "result": 56, "unit": "%"}, {"measurement": "Percent Control", "setting": "PKAC---alpha", "result": 69, "unit": "%"}, {"measurement": "Percent Control", "setting": "PAK1", "result": 77, "unit": "%"}, {"measurement": "Percent Control", "setting": "SRPK3", "result": 100, "unit": "%"}, {"measurement": "Percent Control", "setting": "TIE2", "result": 97, "unit": "%"}, {"measurement": "binding to aurora kinase A", "setting": "AURKA", "result": "25 % of control"}, {"measurement": "Percent Control", "setting": "AURKA; AURKA", "result": 22, "unit": "%"}, {"measurement": "Percent Control", "setting": "KIT(V559D,T670I)", "result": 100, "unit": "%"}, {"measurement": "Percent Control", "setting": "VEGFR2", "result": 100, "unit": "%"}, {"measurement": "Percent Control", "setting": "[1]", "result": 80, "unit": "%"}, {"measurement": "significant inhibition (defined as activity<25% control) across 308 kinases", "setting": "308 kinases", "result": "inhibited aurora kinase B"}, {"measurement": "binding to aurora kinase C", "setting": "AURKC", "result": "3 % of control"}, {"measurement": "Percent Control", "setting": "AURKC; AURKC", "result": 3, "unit": "%"}, {"measurement": "Percent Control", "setting": "[2]", "result": 66, "unit": "%"}, {"measurement": "Percent Control", "setting": "SNARK", "result": 72, "unit": "%"}, {"measurement": "Percent Control", "setting": "PRKCE", "result": 100, "unit": "%"}, {"measurement": "Percent Control", "setting": "JNK1", "result": 91, "unit": "%"}, {"measurement": "Percent Control", "setting": "FLT3", "result": 65, "unit": "%"}]}]}
